Assay type in all cases: cell-based
One assay deals with Calu-1 cells. Briefly: Anti-proliferation (viability) of NSCLC Calu-1 cells, 3 days (Table 7, FIG. 2B). As to conditions: Homo sapiens, 72 h; Calu-1 cells, 3 days, 10-point serial dilution; read-out: GI IC50 in Calu-1. The essentials:
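Cells were exposed to heterobifunctional compounds across a 10-point serial dilution, for 3 days with Calu-1 and 6 days with T47D. A negative control was included that keeps the DDB1 ligand and linker but carries a modified warhead that impairs CDK4 binding.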

The next assay has as its system T47D cells. Briefly: Anti-proliferation (viability) of ER+ breast cancer T47D cells, 6 days (Table 7, FIG. 2B). The following applies: Homo sapiens, 144 h; T47D cells, 6 days, 10-point serial dilution; read-out: GI IC50 in T47D. On the procedure: To evaluate anti-proliferation activities of heterobifunctional compounds, NSCLC Calu-1 or ER+ breast cancer T47D cells were treated with selected heterobifunctional compounds following a 10-point serial dilution for 3 or 6 days, respectively.
To verify that heterobifunctional compound-mediated degradation is dependent on the binding to CDK4-cyclin D complex, a negative control compound, CPD-143, which is derived from active heterobifunctional compound CPD-10 was designed. CPD-143 bears the same DDB1 ligand and linker as CPD-10 but with a modified warhead to impair the binding of the control compound to CDK4.

For the next assay, the system named is MCF7 cells. Description: Anti-proliferation (viability) of MCF7 cells (Table 7, FIG. 2B). As to conditions: Homo sapiens, MCF7, MCF7 cells, 3-6 days, 10-point serial dilution; read-out: GI IC50 in MCF-7.
The target in the next assay is CDK4 (Homo sapiens, UniProt P11802+Q16531). Description: CDK4 percentage degradation in Calu-1 cells (Table 6). As to conditions: 16 hours; for inhibition at 0.04 µM: 40 nM; for inhibition at 0.2 µM: 200 nM. Details: Cells that express cyclin D1-3 and CDK4/6 proteins were treated with heterobifunctional compounds; endogenous in cells; host or cells: Calu-1. In a few lines: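 Percentage degradation of Cyclin D1 and CDK4 derived from densitometry of ECL Western blots on lysates of Calu-1 cells. Treatment was 16 h with compound at either 40 nM or 200 nM.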
CDK4, sequence (P11802 2-303 limits assumed): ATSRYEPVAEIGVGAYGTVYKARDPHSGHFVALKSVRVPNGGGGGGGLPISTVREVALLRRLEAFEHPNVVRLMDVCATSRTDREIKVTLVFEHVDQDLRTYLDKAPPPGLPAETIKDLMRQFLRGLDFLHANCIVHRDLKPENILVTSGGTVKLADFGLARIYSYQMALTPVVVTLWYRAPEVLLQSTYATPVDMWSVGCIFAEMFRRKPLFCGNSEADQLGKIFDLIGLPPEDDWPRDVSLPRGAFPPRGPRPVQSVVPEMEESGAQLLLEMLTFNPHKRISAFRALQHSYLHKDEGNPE
CDK4, sequence (P24385 whole entry partner): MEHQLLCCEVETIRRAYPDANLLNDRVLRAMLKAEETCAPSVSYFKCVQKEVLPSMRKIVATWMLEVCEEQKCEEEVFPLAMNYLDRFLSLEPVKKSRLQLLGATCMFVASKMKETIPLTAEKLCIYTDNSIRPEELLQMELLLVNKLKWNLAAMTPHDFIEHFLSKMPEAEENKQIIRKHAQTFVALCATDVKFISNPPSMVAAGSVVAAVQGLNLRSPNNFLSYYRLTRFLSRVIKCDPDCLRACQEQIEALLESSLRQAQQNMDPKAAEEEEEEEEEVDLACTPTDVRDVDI
CDK4, sequence (Q16531 2-1140 limits assumed): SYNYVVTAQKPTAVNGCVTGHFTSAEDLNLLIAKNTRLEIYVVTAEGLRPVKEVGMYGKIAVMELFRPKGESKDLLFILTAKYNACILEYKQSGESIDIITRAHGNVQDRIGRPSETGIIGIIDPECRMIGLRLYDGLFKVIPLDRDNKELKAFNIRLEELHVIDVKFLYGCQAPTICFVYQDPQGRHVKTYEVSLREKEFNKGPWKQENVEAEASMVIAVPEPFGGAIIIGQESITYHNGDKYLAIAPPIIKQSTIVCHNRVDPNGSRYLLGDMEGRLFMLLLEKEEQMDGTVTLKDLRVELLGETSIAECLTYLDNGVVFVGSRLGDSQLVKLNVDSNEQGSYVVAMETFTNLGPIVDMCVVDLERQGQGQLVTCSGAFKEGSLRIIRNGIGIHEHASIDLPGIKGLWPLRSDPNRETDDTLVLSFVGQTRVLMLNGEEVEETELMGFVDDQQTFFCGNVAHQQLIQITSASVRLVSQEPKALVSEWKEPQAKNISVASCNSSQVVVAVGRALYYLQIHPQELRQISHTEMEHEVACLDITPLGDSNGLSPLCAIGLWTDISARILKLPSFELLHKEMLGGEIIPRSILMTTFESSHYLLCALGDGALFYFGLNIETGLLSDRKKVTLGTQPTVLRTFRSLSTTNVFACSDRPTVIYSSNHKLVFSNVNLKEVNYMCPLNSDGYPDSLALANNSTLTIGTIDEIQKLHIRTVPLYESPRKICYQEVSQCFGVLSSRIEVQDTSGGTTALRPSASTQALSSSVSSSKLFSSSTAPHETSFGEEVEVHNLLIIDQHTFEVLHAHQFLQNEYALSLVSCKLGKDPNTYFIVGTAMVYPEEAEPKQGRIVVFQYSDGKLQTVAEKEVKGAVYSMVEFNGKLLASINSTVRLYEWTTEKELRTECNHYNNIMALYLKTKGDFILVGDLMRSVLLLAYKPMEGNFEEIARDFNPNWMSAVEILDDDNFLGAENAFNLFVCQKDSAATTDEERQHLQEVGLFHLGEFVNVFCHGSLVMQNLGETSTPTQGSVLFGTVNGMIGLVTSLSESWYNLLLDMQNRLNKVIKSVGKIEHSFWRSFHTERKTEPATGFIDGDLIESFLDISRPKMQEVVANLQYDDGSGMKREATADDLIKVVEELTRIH

Broadly, the IC50 is the point on the concentration scale where inhibition reaches its midpoint. One may read the inhibition as how much of the control response was suppressed. Higher therefore signals a response far below the control. Turning to `CC(=O)c1c(C)c2cnc(Nc3ccc(N4CCN(CC(=O)NCCCCCNc5nc(C6CC6)ccc5C(=O)Nc5ccc(N(C)C)nn5)CC4)cn3)nc2n(C2CCCC2)c1=O` [CPD-27, 2-((5-(2-(4-(6-((6-Acetyl-8-cyclopentyl-5-methyl-7-oxo-7,8-dihydropyrido[2,3-d]pyrimidin-2-yl)amino)pyridin-3-yl)piperazin-1-yl)acetamido)pentyl)amino)-6-cyclopropyl-N-(6-(dimethylamino)pyridazin-3-yl)nicotinamide], the IC50 in the assay on Calu-1 cells was at most 10 nM; with T47D cells, 50 to 100 nM; in the assay with MCF7 cells it was 50 to 100 nM. The inhibition at 0.04 µM against CDK4 was over 80%. Moreover, the inhibition at 0.2 µM against CDK4 was over 80%.

As for `CNc1ccc(C(=O)Nc2cccc(C)n2)c(NC2CC3(C2)CN(C(=O)CCN2CCN(c4ccc(Nc5ncc6c(C)c(C(C)=O)c(=O)n(C7CCCC7)c6n5)nc4)CC2)C3)n1` [CPD-155, 2-((2-(3-(4-(6-((6-acetyl-8-cyclopentyl-5-methyl-7-oxo-7,8-dihydropyrido[2,3-d]pyrimidin-2-yl)amino)pyridin-3-yl)piperazin-1-yl)propanoyl)-2-azaspiro[3.3]heptan-6-yl)amino)-6-(methylamino)-N-(6-methylpyridin-2-yl)nicotinamide], the IC50 in the assay on Calu-1 cells is at most 10 nM; in the assay with T47D cells it was 50 to 100 nM; with MCF7 cells, over 100 nM. Besides, at CDK4, the inhibition at 0.04 µM lay in the range of 50 to 80%. On CDK4, this compound had an inhibition at 0.2 µM of over 80%.

Consider `CNc1ccc(C(=O)Nc2ccc(N(C)C)nn2)c(NCCCCC(C)NC(=O)CN2CCN(c3ccc(Nc4ncc5c(C)c(C(C)=O)c(=O)n(C6CCCC6)c5n4)nc3)CC2)n1` (stereo not shown) [CPD-22, 2-((5-(2-(4-(6-((6-Acetyl-8-cyclopentyl-5-methyl-7-oxo-7,8-dihydropyrido[2,3-d]pyrimidin-2-yl)amino)pyridin-3-yl)piperazin-1-yl)acetamido)hexyl)amino)-N-(6-(dimethylamino)pyridazin-3-yl)-6-(methylamino)nicotinamide], for which the IC50 is at most 10 nM with Calu-1 cells, at most 50 nM with T47D cells and 50 to 100 nM in the assay on MCF7 cells. This compound also gave an inhibition at 0.04 µM at CDK4 of over 80%. The inhibition at 0.2 µM on CDK4 was over 80%.

In the case of `CNc1ccc(C(=O)Nc2ccc3ncn(C)c3n2)c(NCCCCCNC(=O)CN2CCN(c3ccc(Nc4ncc5c(C)c(C(C)=O)c(=O)n(C6CCCC6)c5n4)nc3)CC2)n1` [CPD-38, 2-((5-(2-(4-(6-((6-Acetyl-8-cyclopentyl-5-methyl-7-oxo-7,8-dihydropyrido[2,3-d]pyrimidin-2-yl)amino)pyridin-3-yl)piperazin-1-yl)acetamido)pentyl)amino)-N-(3-methyl-3H-imidazo[4,5-b]pyridin-5-yl)-6-(methylamino)nicotinamide], the values for the IC50 in the assay on Calu-1 cells, in the assay on T47D cells and in the assay on MCF7 cells were at most 10 nM, 50 to 100 nM and over 100 nM, respectively. Moreover, the inhibition at 0.04 µM against CDK4 was in the range of 50 to 80%. Besides, the inhibition at 0.2 µM on CDK4 is over 80%.

With `CNc1ccc(C(=O)Nc2ccc(N(C)C)nn2)c(NC2CC3(C2)CN(C(=O)C2(CN4CCN(c5ccc(Nc6ncc7c(C)c(C(C)=O)c(=O)n(C8CCCC8)c7n6)nc5)CC4)CC2)C3)n1` [CPD-115, 2-((2-(1-((4-(6-((6-Acetyl-8-cyclopentyl-5-methyl-7-oxo-7,8-dihydropyrido[2,3-d]pyrimidin-2-yl)amino)pyridin-3-yl)piperazin-1-yl)methyl)cyclopropane-1-carbonyl)-2-azaspiro[3.3]heptan-6-yl)amino)-N-(6-(dimethylamino)pyridazin-3-yl)-6-(methylamino)nicotinamide], the IC50 in the assay with Calu-1 cells was at most 10 nM; in the assay on T47D cells it was at most 50 nM; with MCF7 cells, over 100 nM. The inhibition at 0.04 µM against CDK4 lay in the range of 50 to 80%. Also, the inhibition at 0.2 µM against CDK4 is 50 to 80%.

In the case of `CNc1ccc(C(=O)Nc2ccc(N(C)C)nn2)c(NCCCCCNC(=O)CN2CCN(c3ccc(Nc4ncc5c(C)c(C(C)=O)c(=O)n(C6CCCC6)c5n4)nc3)CC2)n1` [CPD-5, 2-((5-(2-(4-(6-((6-acetyl-8-cyclopentyl-5-methyl-7-oxo-7,8-dihydropyrido[2,3-d]pyrimidin-2-yl)amino)pyridin-3-yl)piperazin-1-yl)acetamido)pentyl)amino)-N-(6-(dimethylamino)pyridazin-3-yl)-6-(methylamino)nicotinamide], the IC50 is at most 10 nM with Calu-1 cells, at most 50 nM in the assay with T47D cells and under 50 nM in the assay with MCF7 cells. The compound further came in with an inhibition at 0.04 µM on CDK4 of 50 to 80%.

Take `CNc1ccc(C(=O)Nc2ccc(N(C)C)nn2)c(NC2CC(CNC(=O)CN3CCN(c4ccc(Nc5ncc6c(C)c(C(C)=O)c(=O)n(C7CCCC7)c6n5)nc4)CC3)C2)n1` (stereo not shown) [CPD-79, 2-((3-((2-(4-(6-((6-Acetyl-8-cyclopentyl-5-methyl-7-oxo-7,8-dihydropyrido[2,3-d]pyrimidin-2-yl)amino)pyridin-3-yl)piperazin-1-yl)acetamido)methyl)cyclobutyl)amino)-N-(6-(dimethylamino)pyridazin-3-yl)-6-(methylamino)nicotinamide]: the IC50 was at most 10 nM in the assay on Calu-1 cells, at most 50 nM in the assay on T47D cells and under 50 nM in the assay with MCF7 cells. At CDK4, this compound showed an inhibition at 0.04 µM of 50 to 80%. On CDK4, this compound came in with an inhibition at 0.2 µM of 50 to 80%.

`CNc1ccc(C(=O)Nc2ccc(N(C)C)nn2)c(NC2CC(CCNC(=O)CN3CCN(c4ccc(Nc5ncc6c(C)c(C(C)=O)c(=O)n(C7CCCC7)c6n5)nc4)CC3)C2)n1` (stereo not shown) [CPD-34, 2-((3-(2-(2-(4-(6-((6-Acetyl-8-cyclopentyl-5-methyl-7-oxo-7,8-dihydropyrido[2,3-d]pyrimidin-2-yl)amino)pyridin-3-yl)piperazin-1-yl)acetamido)ethyl)cyclobutyl)amino)-N-(6-(dimethylamino)pyridazin-3-yl)-6-(methylamino)nicotinamide]: the results for the IC50 in the assay on Calu-1 cells, in the assay with T47D cells and in the assay on MCF7 cells were at most 10 nM, at most 50 nM and under 50 nM, respectively. Further, at CDK4, the inhibition at 0.04 µM was over 80%. This compound yielded an inhibition at 0.2 µM at CDK4 of over 80%.

Turning to `CNc1ccc(C(=O)Nc2ccc(N(C)C)nn2)c(NC2CC3(CC(CNC(=O)N4CCN(c5ccc(Nc6ncc7c(C)c(C(C)=O)c(=O)n(C8CCCC8)c7n6)nc5)CC4)C3)C2)n1` (stereo not shown) [CPD-81, 4-(6-((6-Acetyl-8-cyclopentyl-5-methyl-7-oxo-7,8-dihydropyrido[2,3-d]pyrimidin-2-yl)amino)pyridin-3-yl)-N-((6-((3-((6-(dimethylamino)pyridazin-3-yl)carbamoyl)-6-(methylamino)pyridin-2-yl)amino)spiro[3.3]heptan-2-yl)methyl)piperazine-1-carboxamide], the IC50 with Calu-1 cells lay in the range of 10 to 50 nM. Further, the IC50 with T47D cells fell in the range of 50 to 100 nM. Also, on CDK4, the inhibition at 0.04 µM lay within 30 to 50% and the inhibition at 0.2 µM lay within 30 to 50%.

For the compound `CC(=O)c1c(C)c2cnc(Nc3ccc(N4CCN(CC(=O)NC5CC6(C5)CC(Nc5nc(NC(C)C)ccc5C(=O)Nc5cccc(C7CC7)n5)C6)CC4)cn3)nc2n(C2CCCC2)c1=O` (stereo not shown) [CPD-139, 2-((6-(2-(4-(6-((6-Acetyl-8-cyclopentyl-5-methyl-7-oxo-7,8-dihydropyrido[2,3-d]pyrimidin-2-yl)amino)pyridin-3-yl)piperazin-1-yl)acetamido)spiro[3.3]heptan-2-yl)amino)-N-(6-cyclopropylpyridin-2-yl)-6-(isopropylamino)nicotinamide], the IC50 with Calu-1 cells is at most 10 nM; in the assay on T47D cells, at most 50 nM. At CDK4, this compound gave an inhibition at 0.04 µM of 50 to 80%. Further, the inhibition at 0.2 µM against CDK4 lay in the range of 50 to 80%.

As for `CNc1ccc(C(=O)Nc2ccc(N(C)C)nn2)c(NC2CC(CCNC(=O)N3CCN(c4ccc(Nc5ncc6c(C)c(C(C)=O)c(=O)n(C7CCCC7)c6n5)nc4)CC3)C2)n1` (stereo not shown) [CPD-35, 4-(6-((6-Acetyl-8-cyclopentyl-5-methyl-7-oxo-7,8-dihydropyrido[2,3-d]pyrimidin-2-yl)amino)pyridin-3-yl)-N-(2-(3-((3-((6-(dimethylamino)pyridazin-3-yl)carbamoyl)-6-(methylamino)pyridin-2-yl)amino)cyclobutyl)ethyl)piperazine-1-carboxamide], the IC50 in the assay with Calu-1 cells lay within 10 to 50 nM. In addition, the half-inhibitory concentration (IC50) with T47D cells lay in the range of 50 to 100 nM. At CDK4, this compound showed an inhibition at 0.04 µM of 50 to 80% and an inhibition at 0.2 µM of 50 to 80%.

Turning to `CNc1ccc(C(=O)Nc2ccc(N(C)C)nn2)c(NC(C)CCCCNC(=O)CN2CCN(c3ccc(Nc4ncc5c(C)c(C(C)=O)c(=O)n(C6CCCC6)c5n4)nc3)CC2)n1` (stereo not shown) [CPD-29, 2-((6-(2-(4-(6-((6-Acetyl-8-cyclopentyl-5-methyl-7-oxo-7,8-dihydropyrido[2,3-d]pyrimidin-2-yl)amino)pyridin-3-yl)piperazin-1-yl)acetamido)hexan-2-yl)amino)-N-(6-(dimethylamino)pyridazin-3-yl)-6-(methylamino)nicotinamide], the IC50 with Calu-1 cells was 10 to 50 nM. For the same compound, in the assay with T47D cells, the IC50 was 50 to 100 nM. Moreover, on CDK4, the inhibition at 0.04 µM is 50 to 80% and the inhibition at 0.2 µM is over 80%.

The values are drawn from patent US20260297081A1, “COMPOUNDS AND METHODS OF TREATING CANCERS” (Cullgen Inc., priority 2023, published 2026).
